Assay results taken from patent US4480030A, “Tripeptide derivatives and their application in assaying enzymes” (Pentapharm A.G., priority 1980, dated 1984).
Square brackets hold non-standard residues; d marks the D form. Peptide text beside a SMILES is read from it. * marks the point of attachment. dAad = N[C@H](CCCC(=O)O)C(=O)O; pNA = O=[N+]([O-])c1ccc(N*)cc1; Cbz = O=C(OCc1ccccc1)*

Tests used:
[1] = molecular target: T1, bovine factor Xa (Bos taurus, UniProt P00743); assay: Activity of bovine factor Xa solution on chromogenic/fluorogenic substrate (split product H-R5 released); assay type: biochemical; settings: substrate concentration 2 × 10^-4; TRIS-imidazole buffer pH 8.4, ionic strength 0.3, 37° C.; factor Xa preparation "Diagen"; value calculated for 1 ml of factor Xa solution
T1 construct: purchased Diagnostic Reagents Ltd., Thame, Great Britain factor Xa preparation "Diagen"
Procedure: (§1) The values of the factor Xa activity given in Table 4 were determined experimentally in the manner described hereinafter:
For determining the activity of bovine factor Xa 1.8 ml of TRIS-imidazole buffer having a pH of 8.4 and an ionic strength of 0.3 was well mixed at 37° C. with 0.025 ml of an aqueous solution of factor Xa preparation "Diagen" (furnisher: Diagnostic Reagents Ltd., Thame, Great Britain) obtained by dissolving the contents of one vial in 0.5 ml of water. To the mixture there was added 0.2 ml of a 2×10^-3 M aqueous solution of a substrate of the invention. Thereafter, the quantity of split product H--R^5 in nanomoles released per minute was determined, and the corresponding value of 1 ml of factor Xa solution was calculated.

[2] = molecular target: T2, human factor Xa (Homo sapiens, UniProt P00742); assay: Activity of factor Xa obtained by RVV activation of factor X in normal human blood plasma on substrate (split product H-R5 released); assay type: biochemical; settings: substrate concentration 2 × 10^-4; TRIS-imidazole buffer pH 8.4, ionic strength 0.3, 37° C.; citrated plasma activated with Russel viper venom 75 seconds; value calculated for 1 ml of citrated plasma
T2 construct: from tissue
Procedure: as §1
For determining the activity of human factor Xa 0.01 ml of normal citrated plasma was mixed with 0.20 ml of a solution of Russel viper venom in TRIS-imidazole buffer having a pH of 8.4 and an ionic strength of 0.3 and containing 15 mmoles of CaCl2 […]. The mixture was incubated for 75 seconds at 37° C. in order to activate factor X present in the plasma and convert it completely into factor Xa. To the incubate there was added first 1.40 ml of TRIS-imidazole buffer (pH 8.4, ionic strength 0.3) heated to 37° C. and then 0.40 ml of a 2×10^-3 M aqueous solution of a substrate of the invention. Thereafter, the quantity of split produce H--R^5 in nanomoles released per minute was determined, and the corresponding value for 1 ml of citrated plasma was calculated.

T2 sequence (P00742 235-488 limits assumed): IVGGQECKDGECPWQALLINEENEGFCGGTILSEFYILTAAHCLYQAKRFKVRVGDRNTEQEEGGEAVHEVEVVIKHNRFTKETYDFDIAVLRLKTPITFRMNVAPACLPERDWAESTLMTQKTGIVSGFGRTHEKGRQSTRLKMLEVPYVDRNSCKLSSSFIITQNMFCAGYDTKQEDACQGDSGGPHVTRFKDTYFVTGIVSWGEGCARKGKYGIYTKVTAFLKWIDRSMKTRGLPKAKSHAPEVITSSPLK
T2 sequence (P00742 41-179 partner limits assumed): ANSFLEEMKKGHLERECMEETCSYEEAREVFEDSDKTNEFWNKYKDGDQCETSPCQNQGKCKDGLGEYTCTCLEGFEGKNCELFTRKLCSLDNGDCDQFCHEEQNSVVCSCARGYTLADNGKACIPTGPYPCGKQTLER
T1 sequence (P00743 234-492 limits assumed): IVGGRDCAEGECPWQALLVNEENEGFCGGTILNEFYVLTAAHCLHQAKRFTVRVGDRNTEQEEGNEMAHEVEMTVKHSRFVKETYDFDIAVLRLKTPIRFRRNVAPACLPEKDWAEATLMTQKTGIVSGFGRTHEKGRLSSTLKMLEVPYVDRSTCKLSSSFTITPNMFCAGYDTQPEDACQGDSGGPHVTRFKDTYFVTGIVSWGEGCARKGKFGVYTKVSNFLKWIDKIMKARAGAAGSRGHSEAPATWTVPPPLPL
T1 sequence (P00743 41-180 partner limits assumed): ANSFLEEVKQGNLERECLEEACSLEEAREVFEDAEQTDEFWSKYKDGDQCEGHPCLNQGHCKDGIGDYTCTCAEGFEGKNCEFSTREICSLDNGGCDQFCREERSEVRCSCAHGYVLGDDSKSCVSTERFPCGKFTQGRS

Compound	Activity of 1 ml of aqueous solution of bovine factor Xa, expressed in nanomoles of split product H--R^5 released per minute [1]	Activity of factor Xa as obtained by activation of factor X in 1 ml of normal human blood plasma by means of RVV, expressed in nanomoles of split product H--R^5 released per minute [2]
2-(4-Cbo-- amino)-phenylacetyl-D-Nval--Gly--Arg--pNA.HBr [Example 53]	680 nanomoles of split product H--	510 nanomoles of split product H--
4-Aminomethyl-cyclohexyl-carbonyl-bonyl-D-Leu--Sar--Arg--pNA.2HBr [Example 43]	60 nanomoles of split product H--	30 nanomoles of split product H--
N=C(N)NCCC[C@H](NC(=O)CNC(=O)[C@@H](CCC(=O)O)NC(=O)OCc1ccccc1)C(=O)Nc1ccc([N+](=O)[O-])cc1 [Example 96, Cbo--D-Glu--Gly--Arg--pNA] (Cbz-[dE]-Gly-Arg-pNA)	830 nanomoles of split product H--	505 nanomoles of split product H--
N=C(N)NCCC[C@H](NC(=O)CNC(=O)[C@@H](CCCC(=O)O)NC(=O)OCc1ccccc1)C(=O)Nc1ccc([N+](=O)[O-])cc1 [Example 102, Cbo--D-Aadi--Gly--Arg--pNA] (Cbz-[dAad]-Gly-Arg-pNA)	1030 nanomoles of split product H--	905 nanomoles of split product H--
BOC--D-(α)-AOA--Gly--Arg--pNA.AcOH [Example 84]	2210 nanomoles of split product H--	1690 nanomoles of split product H--
Cbo--4-aminomethyl-cyclohexyl-carbonyl-D-Leu--176 Sar--Arg--pNA.HBr [Example 42]	30 nanomoles of split product H--	20 nanomoles of split product H--
